The test system of this assay is adulte ovarektomierte Ratten. As to the kind of experiment: Uterus wet weight after single oral application in adult ovariectomized rats (oral estrogenic effect, dose-response analysis). The assay is classed as in vivo. As to conditions: suspended in Myrj, 3-100 µg/T (dose refers to steroid part), uterus wet weight on day 4, Abbildungen 1 und 2. From the text: Als Vergleiche dienten Ethinylestradiol (EE) und 14α,15α-Methylen-estra-1,3,5(10)-trien-3,17β-diol (Code: J824) Die Ermittlung der Uterusfeuchtmassen nach einmaliger oraler Substanzapplikation sowie die Dosis-Wirkungsanalysen der Substanzen wurde zur Bemessung einer Estrogenwirkung herangezogen.
Sowohl Uterus als auch Vagina zeigen bei ovarektomierten Ratten eine von der Estrogendosis abhängige Gewichtszunahme. Diese ist auf eine Proliferation der Schleimhäute, erhöhte Proteinsynthese, aber auch auf eine Wassereinlagerung zurückzuführen. Für die der Erfindung zu Grunde liegenden Untersuchungen wurden adulte ovarektomierte Ratten eingesetzt. In einer kontrollierten Studie wurden Ester des 14α,15α-Methylen-estradiols auf estrogene Wirkung bei oraler Applikation gegen Ethinylestradiol(EE) und 14α,15α-Methylen-estradiol (J 824) geprüft. Die angegebenen Dosierungen beziehen sich auf den Steroidkern der Moleküle. Die Testsubstanzen wurden einmalig oral appliziert. Als Parameter einer Estrogenwirkung wurden am 4. Tag des Versuches die Uterusgewichte ermittelt (Feuchtgewichte).
Weibliche Ratten [Stamm: BOR:WISW (SPF/Cpb)], Körpermasse zu Versuchsbeginn 200 - 240 g wurden ovarektomiert und 10 Tage nach diesem Eingriff randomisiert den Versuchsgruppen zugeordnet. Dann erfolgte die einmalige orale Applikation (Tag 1) der Prüfsubstanzen. Am 4. […]

Each structure is given as a SMILES string.

In the case of `C[C@]12CC[C@@H]3c4ccc(O)cc4CC[C@H]3[C@@]13C[C@H]3C[C@@H]2O` [J824, 14α,15α-Methylen-estra-1,3,5(10)-trien-3,17β-diol], the “orale Estrogenwirkung (Uterusfeuchtmassen)” value is on record as “bessere estrogene Wirkung des J824 gegenüber EE”.

(Values after patent publication EP0707593B1, “ORALLY ADMINISTERABLE ESTERS OF 14 ALPHA,15 ALPHA-METHYLENE-OESTRADIOL WITH AN OESTROGENIC ACTION” (Jenapharm GmbH & Co. KG, priority 1993, dated 1995).)
